From PubChem BioAssay (NCI)
“And” between values parts separate entries of the source, which are not always exact repeats. Equal entries are not always repeated.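 96-well plates; 48 h exposure; 5 concentrations. Endpoints by linear interpolation between flanking doses. Not reached: highest tested concentration assigned. GI50 marks 50% less growth. TGI: total growth inhibition.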

Experiments:
Test in all cases: inhibition of tumour cell growth, NCI panel, 48 h
A549 NSCLC = system: A549 NSCLC
COLO 205 colon = system: COLO 205 colon
K-562 leukemia = system: K-562 leukemia
SN12C renal = system: SN12C renal
UACC-257 melanoma = system: UACC-257 melanoma
DU-145 prostate = system: DU-145 prostate
KM12 colon = system: KM12 colon
MDA-MB-231 breast = system: MDA-MB-231 breast
OVCAR-5 ovarian = system: OVCAR-5 ovarian
HOP-92 NSCLC = system: HOP-92 NSCLC

Row | Compound | TGI (A549 NSCLC) [µM] | TGI (COLO 205 colon) | TGI (K-562 leukemia) [µM] | TGI (SN12C renal) | TGI (UACC-257 melanoma) | GI50 (DU-145 prostate) [nM] | TGI (DU-145 prostate) [µM] | GI50 (K-562 leukemia) [nM] | GI50 (KM12 colon) | TGI (KM12 colon) [µM] | GI50 (MDA-MB-231 breast) [nM] | TGI (MDA-MB-231 breast) [µM] | GI50 (OVCAR-5 ovarian) [µM] | TGI (OVCAR-5 ovarian) | GI50 (SN12C renal) [nM] | GI50 (UACC-257 melanoma) [nM] | GI50 (A549 NSCLC) [µM] | GI50 (COLO 205 colon) [nM] | GI50 (HOP-92 NSCLC) [µM] | TGI (HOP-92 NSCLC)
1 | COC1(C)C(=O)N2C1N(C(=O)OCc1ccccc1)CC2(C)C (stereo not given) | > 100 | > 100 µM | > 100 | > 100 µM | > 100 µM | – | – | – | – | – | – | – | – | – | – | – | – | – | – | –
2 | COc1ccc2c(c1)C(=O)c1c-2n(CCCN)c(=O)c2cc([N+](=O)[O-])ccc12 | – | – | 1.31 | < 0.01 µM | 0.736 µM | < 10 | 0.0193 | < 10 | 1500 nM | 3.46 | 100 | 0.227 | < 0.01 | < 0.01 µM | < 10 | < 10 | – | – | – | –
3 | COc1cccc2c1[C@H]1CO[C@H]3C4C[C@H](C(=O)O)C([C@@H](C2)N13)N4C (stereo not given in full) | 99 | 2.58 µM and 2.41 µM | – | 8.32 µM and > 35.8 µM | 5.15 µM and 1.81 µM | – | – | 397 | 5210 nM and 685 nM | 1.64 | – | – | – | 4.94 µM and > 24.3 µM | 884 | 703 | 10.1 | 515 | 0.684 | 4.55 µM and 3.22 µM
4 | CCN(CC)CCCC(C)Nc1c(Sc2cnc3cc(Cl)ccc3c2NC(C)CCCN(CC)CC)cnc2cc(Cl)ccc12 (stereo not given) | 3.24 | 2.88 µM | 3.7 | 3.53 µM | 3.49 µM | – | – | – | – | 3.79 | – | – | – | 3.34 µM | – | – | – | – | – | 4.07 µM
5 | O=NN(CCCl)C(=O)NC1CCC(=O)NC1=O (stereo not given) | 811 | 684 µM | 595 | – | 975 µM | – | 1060 | – | – | 578 | – | 674 | – | > 1210 µM | – | – | – | – | – | 377 µM
6 | N.N.N.N.N.O=S(=O)([O-])C(F)(F)F.O=S(=O)([O-])C(F)(F)F.[Os+8] | > 100 | 25.4 µM | 61.5 | 37.3 µM | > 100 µM | – | – | 7510 | 13700 nM | 35 | – | – | 15.4 | 31.9 µM | 12700 | 22200 | 24.2 | 10900 | 14.8 | 35.8 µM
7 | Cc1c2ccncc2c(C)c2c1c1cc(CO)ccc1n2C | 2.81 | 1.94 µM | 5.82 | 5.35 µM | – | 653 | 6.02 | 473 | 492 nM | 20 | 456 | 2.96 | 0.267 | 0.984 µM | 442 | – | 0.416 | 373 | 0.636 | 4.87 µM
8 | CCCCc1c2c(nc3c1CCc1cc4cc5c(nc4nc1-3)-c1nc3c(c(CCCC)c1CC5)CCC/C3=C\c1ccccc1)/C(=C/c1ccccc1)CCC2 | > 100 | > 100 µM | > 100 | > 100 µM | > 100 µM | – | – | – | – | > 100 | – | – | – | – | – | – | – | – | – | –
9 | N/C(=N\c1nc2ccccc2s1)NC(=NC1CCCCC1)NC1CCCCC1 | – | 3.6 µM | – | 3.11 µM | 3.65 µM | 1780 | 3.34 | – | 1940 nM | 3.78 | – | – | 1.62 | 3.07 µM | 1610 | 1760 | – | 1700 | – | –
10 | Cc1oc2c(c1C(=O)N1CC[C@@H](N)C1)C(=O)c1c(c(O)c3ccccc3c1O)C2=O | – | 1.97 µM | 9 | 11 µM | – | 1060 | 15.5 | 1860 | 2980 nM | 14.4 | 2260 | 9.06 | 5.2 | 18.9 µM | 1300 | – | – | 643 | 4.64 | 17.4 µM
11 | Nc1ccc(C(=O)NN2C(=O)C(Cl)C2c2cccc(O)c2)cc1 (stereo not given) | 39.3 | 34.6 µM | 44.5 | 32.3 µM | 41.7 µM | – | – | – | – | 22.5 | – | – | – | 41.9 µM | – | – | – | – | – | 35.4 µM
12 | Cc1cc(C)nc(NS(=O)(=O)c2ccc(NC(=O)c3cccn4c(=O)c5ccccc5nc34)cc2)n1 | > 100 | > 100 µM | > 100 | > 100 µM | – | – | – | – | – | > 100 | – | – | – | > 100 µM | – | – | – | – | – | –
13 | O=C(O)COc1ccc(C(=O)/C(SS/C(C(=O)c2ccc(OCC(=O)O)c(Cl)c2Cl)=C2\C=C(c3ccc(Br)cc3)SS2)=C2/C=C(c3ccc(Br)cc3)SS2)c(Cl)c1Cl | > 100 | 14.9 µM | > 100 | > 100 µM | > 67.4 µM | – | > 100 | – | – | 28.4 | – | – | – | > 100 µM | – | – | – | – | – | 16 µM
14 | COCCOCOC(C)(C)[C@H](CCOC(C)=O)O[Si](c1ccccc1)(c1ccccc1)C(C)(C)C | > 100 | 13.7 µM | 28.8 | 29.5 µM | 31.1 µM | – | – | – | – | > 100 | – | – | – | > 100 µM | – | – | – | – | – | 27.9 µM
15 | COc1ccc2c(c1)C(=O)c1c-2c(N2CCNCC2)nc2ccccc12 | 15.8 | 3.28 µM | > 100 | 14.9 µM | 5.11 µM | 1890 | 4.73 | 2640 | 2010 nM | 4.84 | 3210 | 11.1 | 14.4 | 30.2 µM | 3910 | 2380 | 3.3 | 1660 | – | –
16 | COc1ccc(Cc2nc3ccccc3s2)cc1OC | 61.8 | 27.7 µM | 49.6 | 30.8 µM | 32.9 µM | – | – | – | – | 32.2 | – | – | – | 37.6 µM | – | – | – | – | – | 36.5 µM
17 | CC(=O)[CH-]C(=O)Nc1ccccc1.CC(=O)[CH-]C(=O)Nc1ccccc1.CC[O-].CC[O-].[Ti+4] | > 100 | > 100 µM | > 100 | > 100 µM | > 100 µM | – | – | > 100000 | > 100000 nM | > 100 | – | – | > 100 | > 100 µM | > 100000 | > 100000 | > 100 | > 100000 | > 100 | > 100 µM
18 | Cc1ccc(NC(=O)CC2SC(N)=NC2=O)cc1C (stereo not given) | > 100 | > 100 µM | > 100 | > 100 µM | > 100 µM | – | – | – | – | > 100 | – | – | – | > 100 µM | – | – | – | – | – | > 100 µM
19 | C/C(=C\Cc1cc(O)ccc1O)CCc1c(C)c(O)c(O)c(C=O)c1C | 92.8 | 34.4 µM | > 100 | 77.8 µM | – | – | – | – | – | 44.3 | – | – | – | – | – | – | – | – | – | 34.7 µM
